# Results: patent US20250144067A1, “PERSONALIZED STARVATION THERAPY FOR CANCER” (Faeth Therapeutics, Inc., priority 2021, published 2025)
# Structures can show the parent of a compound that is named as a salt.
# Tests used:
# [1] = test system: NCI-H292 lung cancer cells; assay: FDA drug screening, complete media vs cholesterol-free media with simvastatin (TABLE 2); type: cell-based, human; details: for Cholesterol-free media + simvastatin (0.04 μM) / Complete Media: NCI-H292 cells
# [2] = test system: NCI-H292 lung cancer cells; assay: FDA drug screening, complete media vs cholesterol-free media without statin (TABLE 1); type: cell-based, human
# [3] = drug in cholesterol-free media with simvastatin 0.04 μM
# [4] = complete media vs cholesterol-free media + simvastatin (0.04 μM), >0 enhanced anti-cancer activity, about 0 neutral, <0 antagonist
# [5] = NCI-H292 cells, cholesterol-free media without statin, FDA drug library screen
# [6] = NCI-H292 cells, complete media, FDA drug library screen
# [7] = complete vs cholesterol-free media, >0 enhanced anti-cancer activity, about 0 neutral, <0 antagonist
# [8] = Complete minus Cholesterol-free, >0 enhanced anti-cancer activity, about 0 neutral, <0 antagonist
# [9] = cholesterol-free media with simvastatin 0.04 μM, cell growth value in FDA drug screen
# [10] = complete media, cell growth value in FDA drug screen
# [11] = complete media minus cholesterol-free media + simvastatin, >0 enhanced anti-cancer activity, about 0 neutral, <0 antagonist
# [12] = NCI-H292 cells, cholesterol-free media without statin
# [13] = complete vs cholesterol-free media, greater than 0 enhanced anti-cancer activity, about 0 neutral, below 0 antagonists
# [14] = FDA drug library screen, cholesterol-free media with simvastatin 0.04 μM
# [15] = FDA drug library screen, complete media
# [16] = FDA library drug in complete media
# [17] = FDA library drug in cholesterol-free media with simvastatin 0.04 μM
# [18] = Complete minus Cholesterol-free, greater than 0 enhanced anti-cancer activity, about 0 neutral, below 0 antagonist
# [19] = NCI-H292 cells, FDA drug library screen, cholesterol-free media without statin
# [20] = NCI-H292 cells, FDA drug library screen, complete media
# [21] = NCI-H292 cells in cholesterol-free media without statin
# [22] = NCI-H292 cells in complete media
# [23] = Complete minus Cholesterol-free, greater than 0 enhanced anti-cancer activity, about 0 neutral, below 0 antagonists
# [24] = cholesterol-free media with simvastatin 0.04 μM, FDA drug library screen (TABLE 2)
# [25] = complete media, FDA drug library screen (TABLE 2)
# [26] = complete media minus cholesterol-free media + simvastatin (0.04 μM), >0 enhanced anti-cancer activity, about 0 neutral, <0 antagonist
smiles,measurement,setting,value
COc1cc(N2CCC(N3CCN(C)CC3)CC2)ccc1Nc1ncc(Cl)c(Nc2ccccc2P(C)(C)=O)n1 [Brigatinib],Cholesterol-free media + simvastatin (0.04 μM),[1]; [3],0.8361
same,Complete Media,[1]; drug in complete media,0.6309
same,Difference,[1]; [4],−0.21
same,Cholesterol-free,[2]; [5],0.5531
same,Complete,[2]; [6],0.9482
same,Difference,[2]; [7],0.40
Brc1c(NC2=NCCN2)ccc2nccnc12 [Brimonidine],Cholesterol-free media + simvastatin (0.04 μM),[1]; [3],0.9016
same,Complete Media,[1]; drug in complete media,0.7279
same,Difference,[1]; [4],−0.17
same,Difference,[2]; [8],−0.01
same,Cholesterol-free,[2]; [5],0.9724
same,Complete,[2]; [6],0.9659
CCN[C@H]1CN(CCCOC)S(=O)(=O)c2sc(S(N)(=O)=O)cc21 [Brinzolamide],Cholesterol-free media + simvastatin (0.04 μM),[1]; [9],1.105
same,Complete Media,[1]; [10],1.197
same,Difference,[1]; [11],0.09
same,Difference,[2]; [8],0.00
same,Cholesterol-free,[2]; [5],0.8738
same,Complete,[2]; [6],0.876
O=c1[nH]c(=O)n([C@H]2C[C@H](O)[C@@H](CO)O2)cc1/C=C/Br [Brivudine],Cholesterol-free media + simvastatin (0.04 μM),[1]; [9],1.157
same,Complete Media,[1]; [10],1.26
same,Difference,[1]; [11],0.10
same,Cholesterol-free,[2]; [12],1.108
same,Complete,"[2]; NCI-H292 cells, complete media",0.7267
same,Difference,[2]; [13],−0.38
Nc1c(CC(=O)O)cccc1C(=O)c1ccc(Br)cc1 [Bromfenac (sodium hydrate)],Cholesterol-free media + simvastatin (0.04 μM),[1]; [14],1.132
same,Complete Media,[1]; [15],1.293
same,Difference,[1]; [11],0.16
same,Cholesterol-free,[2]; [12],1.074
same,Complete,"[2]; NCI-H292 cells, complete media",0.716
same,Difference,[2]; [13],−0.36
Nc1c(CC(=O)O)cccc1C(=O)c1ccc(Br)cc1 [Bromfenac (sodium)],Complete Media,[1]; [16],1.029
same,Difference,[1]; [4],−0.59
same,Cholesterol-free,[2]; [12],1.333
same,Complete,"[2]; NCI-H292 cells, complete media",0.9935
same,Difference,[2]; [13],−0.34
CN(Cc1cc(Br)cc(Br)c1N)C1CCCCC1 [Bromhexine (hydrochloride)],Cholesterol-free media + simvastatin (0.04 μM),[1]; [17],1.081
same,Complete Media,[1]; [16],0.7932
same,Difference,[1]; [4],−0.29
same,Difference,[2]; [18],−0.09
same,Cholesterol-free,[2]; [19],1.344
same,Complete,[2]; [20],1.254
CC(C)C(Br)C(=O)NC(N)=O (centres unmarked) [Bromisoval],Cholesterol-free media + simvastatin (0.04 μM),[1]; [3],1.086
same,Complete Media,[1]; drug in complete media,0.9233
same,Difference,"[1]; complete media vs cholesterol-free media + simvastatin (0.04 μM), […]",−0.16
same,Difference,"[2]; Complete minus Cholesterol-free, […]",−0.47
same,Cholesterol-free,[2]; [21],1.334
same,Complete,[2]; [22],0.8605
O=C(CCCN1CCC(O)(c2ccc(Br)cc2)CC1)c1ccc(F)cc1 [Bromperidol],Cholesterol-free media + simvastatin (0.04 μM),[1]; [14],0.4758
same,Complete Media,[1]; [15],1.318
same,Difference,[1]; [11],0.84
same,Difference,[2]; [18],−0.13
same,Cholesterol-free,[2]; [19],1.177
same,Complete,[2]; [20],1.05
O=[N+]([O-])C(Br)(CO)CO [Bronopol],Cholesterol-free media + simvastatin (0.04 μM),[1]; [9],0.8221
same,Complete Media,[1]; [10],0.9082
same,Difference,[1]; [11],0.09
same,Difference,[2]; [23],−0.52
same,Cholesterol-free,[2]; [21],1.461
same,Complete,[2]; [22],0.9389
Oc1c(Br)cc(Br)c2cccnc12 [Broxyquinoline],Cholesterol-free media + simvastatin (0.04 μM),[1]; [14],1.072
same,Complete Media,[1]; [15],1.219
same,Difference,[1]; [11],0.15
same,Cholesterol-free,[2]; [5],1.044
same,Complete,[2]; [6],1.24
same,Difference,[2]; [7],0.20
CCCC(=O)Nc1ncnc2c1ncn2[C@@H]1O[C@@H]2COP(=O)(O)O[C@H]2[C@H]1OC(=O)CCC [Bucladesine (calcium)],Cholesterol-free media + simvastatin (0.04 μM),[1]; [24],0.8302
same,Complete Media,[1]; [25],0.804
same,Difference,[1]; [26],−0.03
same,Difference,[2]; [18],−0.13
same,Cholesterol-free,[2]; [19],0.8949
same,Complete,[2]; [20],0.7629
CCCC(=O)Nc1ncnc2c1ncn2[C@@H]1O[C@@H]2COP(=O)(O)O[C@H]2[C@H]1OC(=O)CCC [Bucladesine (sodium)],Cholesterol-free media + simvastatin (0.04 μM),[1]; [3],1.094
same,Complete Media,[1]; drug in complete media,0.8977
same,Difference,[1]; [4],−0.20
same,Difference,[2]; [8],−0.23
same,Cholesterol-free,[2]; [12],1.11
same,Complete,"[2]; NCI-H292 cells, complete media",0.8768
CC(C)(C)c1ccc(CN2CCN(C(c3ccccc3)c3ccc(Cl)cc3)CC2)cc1 (centres unmarked) [Buclizine (dihydrochloride)],Cholesterol-free media + simvastatin (0.04 μM),[1]; [9],0.9719
same,Complete Media,[1]; [10],1.018
same,Difference,[1]; [11],0.05
same,Cholesterol-free,[2]; [5],0.6562
same,Complete,[2]; [6],1.363
same,Difference,[2]; [7],0.71
CCCC1O[C@@H]2C[C@H]3[C@@H]4CCC5=CC(=O)C=C[C@]5(C)[C@H]4[C@@H](O)C[C@]3(C)[C@]2(C(=O)CO)O1 (some centres unmarked) [Budesonide],Cholesterol-free media + simvastatin (0.04 μM),[1]; [17],1.254
same,Complete Media,[1]; [16],0.6405
same,Difference,[1]; [4],−0.61
same,Cholesterol-free,[2]; [5],0.6924
same,Complete,[2]; [6],1.034
same,Difference,[2]; [7],0.34
CCCCOc1ccc(CC(=O)NO)cc1 [Bufexamac],Cholesterol-free media + simvastatin (0.04 μM),[1]; [14],1.029
same,Complete Media,[1]; [15],1.594
same,Difference,[1]; [11],0.56
same,Cholesterol-free,[2]; [5],1.346
same,Complete,[2]; [6],1.459
same,Difference,[2]; [7],0.11
COc1cc(OC)c(C(=O)CCCN2CCCC2)c(OC)c1 [Buflomedil (hydrochloride)],Cholesterol-free media + simvastatin (0.04 μM),[1]; [14],0.7629
same,Complete Media,[1]; [15],1.555
same,Difference,[1]; [11],0.79
same,Difference,[2]; [8],−0.02
same,Cholesterol-free,[2]; [5],0.6014
same,Complete,[2]; [6],0.5837
CCCCNc1cc(C(=O)O)cc(S(N)(=O)=O)c1Oc1ccccc1 [Bumetanide],Cholesterol-free media + simvastatin (0.04 μM),[1]; [9],1.046
same,Complete Media,[1]; [10],1.138
same,Difference,[1]; [11],0.09
same,Difference,[2]; [8],0.04
same,Cholesterol-free,[2]; [5],0.6987
same,Complete,[2]; [6],0.7406
CCCCN1CCCCC1C(=O)Nc1c(C)cccc1C (centres unmarked) [Bupivacaine (hydrochloride)],Cholesterol-free media + simvastatin (0.04 μM),[1]; [3],1.059
same,Complete Media,[1]; drug in complete media,0.8922
same,Difference,[1]; [4],−0.17
same,Difference,[2]; [18],−0.15
same,Cholesterol-free,[2]; [19],1.158
same,Complete,[2]; [20],1.01
O=C1CC2(CCCC2)CC(=O)N1CCCCN1CCN(c2ncccn2)CC1 [Buspirone (hydrochloride)],Cholesterol-free media + simvastatin (0.04 μM),[1]; [9],0.8828
same,Complete Media,[1]; [10],0.9935
same,Difference,[1]; [11],0.11
same,Cholesterol-free,[2]; [12],1.286
same,Complete,"[2]; NCI-H292 cells, complete media",0.8529
same,Difference,[2]; [13],−0.43
CS(=O)(=O)OCCCCOS(C)(=O)=O [Busulfan],Cholesterol-free media + simvastatin (0.04 μM),[1]; [17],1.936
same,Complete Media,[1]; [16],1.265
same,Difference,[1]; [4],−0.67
same,Difference,[2]; [8],0.07
same,Cholesterol-free,[2]; [5],1.648
same,Complete,[2]; [6],1.719
CCCCOC(=O)c1ccc(N)cc1 [Butamben],Cholesterol-free media + simvastatin (0.04 μM),[1]; [17],1.665
same,Complete Media,[1]; [16],1.081
same,Difference,[1]; [4],−0.58
same,Difference,[2]; [8],−0.20
same,Cholesterol-free,[2]; [12],1.171
same,Complete,"[2]; NCI-H292 cells, complete media",0.9712
CN(Cc1ccc(C(C)(C)C)cc1)Cc1cccc2ccccc12 [Butenafine (Hydrochloride)],Cholesterol-free media + simvastatin (0.04 μM),[1]; [24],1.078
same,Complete Media,[1]; [25],1.061
same,Difference,[1]; [26],−0.02
same,Cholesterol-free,[2]; [12],1.694
same,Complete,"[2]; NCI-H292 cells, complete media",1.364
same,Difference,[2]; [13],−0.33
CCCCC1OC(=O)c2ccccc21 (centres unmarked) [Butylphthalide],Cholesterol-free media + simvastatin (0.04 μM),[1]; [3],1.292
same,Complete Media,[1]; drug in complete media,1.12
same,Difference,[1]; [4],−0.17
same,Cholesterol-free,[2]; [5],0.6966
same,Complete,[2]; [6],1.343
same,Difference,[2]; [7],0.65
CO[C@H]1C(=O)[C@]2(C)[C@@H](OC)C[C@H]3OC[C@@]3(OC(C)=O)[C@H]2[C@H](OC(=O)c2ccccc2)[C@]2(O)C[C@H](OC(=O)[C@H](O)[C@@H](NC(=O)OC(C)(C)C)c3ccccc3)C(C)=C1C2(C)C [Cabazitaxel],Cholesterol-free media + simvastatin (0.04 μM),[1]; [24],0.364
same,Complete Media,[1]; [25],0.3065
same,Difference,[1]; [26],−0.06
same,Difference,[2]; [8],−0.01
same,Cholesterol-free,[2]; [5],0.2044
same,Complete,[2]; [6],0.198
C=CCN1C[C@H](C(=O)N(CCCN(C)C)C(=O)NCC)C[C@@H]2c3cccc4[nH]cc(c34)C[C@H]21 [Cabergoline],Cholesterol-free media + simvastatin (0.04 μM),[1]; [3],1.138
same,Complete Media,[1]; drug in complete media,0.8998
same,Difference,[1]; [4],−0.24
same,Difference,[2]; [23],−0.59
same,Cholesterol-free,[2]; [21],1.769
same,Complete,[2]; [22],1.184
COc1cc2nccc(Oc3ccc(NC(=O)C4(C(=O)Nc5ccc(F)cc5)CC4)cc3)c2cc1OC [Cabozantinib (S-malate)],Cholesterol-free media + simvastatin (0.04 μM),[1]; [17],1.216
same,Complete Media,[1]; [16],0.9255
same,Difference,[1]; [4],−0.29
same,Difference,[2]; [18],−0.18
same,Cholesterol-free,[2]; [19],1.011
same,Complete,[2]; [20],0.8269
COc1cc2nccc(Oc3ccc(NC(=O)C4(C(=O)Nc5ccc(F)cc5)CC4)cc3)c2cc1OC [Cabozantinib],Cholesterol-free media + simvastatin (0.04 μM),[1]; [24],1.169
same,Complete Media,[1]; [25],1.161
same,Difference,[1]; [26],−0.01
same,Difference,[2]; [18],−0.08
same,Cholesterol-free,[2]; [19],1.023
same,Complete,[2]; [20],0.943
O=C(O)/C=C/c1ccc(O)c(O)c1 [Caffeic acid],Cholesterol-free media + simvastatin (0.04 μM),[1]; [14],0.9424
same,Complete Media,[1]; [15],0.8032
same,Difference,[1]; [4],−0.14
same,Difference,[2]; [8],0.01
same,Cholesterol-free,[2]; [5],0.885
same,Complete,[2]; [6],0.8915
